Results on one substance are retold here after paper PMC11187126, “Structure and dynamics of the pyroglutamylated RF-amide peptide QRFP receptor GPR103” (Nature Communications, 2024).

Where two headings read alike, the source gives them in different places. No end group written: not given here.

The test deals with T1, GPR103 E203^ECL2A/Q211^5.35E/E297^6.59A (Homo sapiens, UniProt Q96P65, E203A/E297A/Q211E).
T1 construct: we used human full-length QRFPR-encoding plasmids; expressed in transfected cells; host or cells: HEK293 cells (HEK293A in the flow cytometry section), pCAGGS vector
T1 sequence (Q96P65 1-431 E203A/Q211E/E297A): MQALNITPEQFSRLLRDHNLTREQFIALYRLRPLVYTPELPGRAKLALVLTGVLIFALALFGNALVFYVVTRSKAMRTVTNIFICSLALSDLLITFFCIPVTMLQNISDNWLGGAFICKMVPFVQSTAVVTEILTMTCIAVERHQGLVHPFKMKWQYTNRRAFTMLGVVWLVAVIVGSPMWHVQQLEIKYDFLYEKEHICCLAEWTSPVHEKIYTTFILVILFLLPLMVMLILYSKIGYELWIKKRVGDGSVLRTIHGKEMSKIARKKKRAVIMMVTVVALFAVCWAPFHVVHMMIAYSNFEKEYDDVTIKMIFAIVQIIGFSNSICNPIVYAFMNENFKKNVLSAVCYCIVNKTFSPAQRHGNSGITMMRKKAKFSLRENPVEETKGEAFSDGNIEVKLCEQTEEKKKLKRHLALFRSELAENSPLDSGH
The experiment in a line: TGFα shedding assay; Exp. level >WT (1:1). The test is classed as cell-based.

For the substance TSGPLGNLAEELNGYSRKKGGFSFRF-NH2 [QRFP26], the Emax (Exp. #1) is on record as 103.81 % WT; the Emax (Exp. #2) turned out to be 100.88 % WT; the Emax (Exp. #3) is 112.76 % WT; the Emax (mean, read-out: Emax) came to 106%; the Emax (n = 3, read-out: Emax) came out at 109 ± 2.9%. Further, the EC50 (n = 3) was 427 nM.
